Laboratory results: patent publication US20250186411A1, “Methods of Treating Disorders Associated with Overactivation of IKKB” (The United States Government as represented by the …, priority 2023, published 2025)

Key:
[1] = tested on: KLF15 promoter with mutation in the GRE (pEZX-FR03hKLF5p-mutant podocytes); experiment: GR-mutant KLF15 reporter assay; assay type: cell-based, human; settings: as compared to DMSO
[2] = tested on: KLF15 promoter (pEZX-FR03hKLF5p human podocytes); experiment: Lipopolysaccharide treatment in human podocytes, KLF15 reporter activity; assay type: cell-based; settings: as compared to DMSO
Description: (§1) Differentiated pEZX-FR03hKLF5p human podocytes were treated with 25 μg/ml lipopolysaccharide (LPS) or vehicle and 1 μM KLF15 agonist or vehicle control for 24 hours. Firefly and renilla luciferase assay were measured initially to determine relative KLF15 reporter activity.

human podocytes = experiment: Cell viability of podocytes (renilla activity, MTS assay); assay type: cell-based
Description: as §1
Differentiated pEZX-FR03hKLF5p human podocytes were treated with 0.4 μg/ml adriamycin (ADR) or vehicle and 1 μM KLF15 agonist or vehicle control for 24 hours. Firefly and renilla luciferase assay were measured initially to determine relative KLF15 reporter activity.
To assess cell viability, the CellTiter 96® AQueous One Solution Reagent (Promega) was added to the culture media and plates were incubated for 2 hours at 37° C. with 5% CO2.

FVB/n mice = experiment: LPS-induced proteinuric murine model; assay type: in vivo, mouse
Description: In the LPS-induced proteinuric model, all 8-week-old FVB/n mice were initially treated with LPS [intraperitoneal (IP), 10 μg/g, Sigma-Aldrich] or sterile normal saline (IP) at 0- and 24-hour time points as previously described (17). […] Urine was collected and mice were euthanized 48 hours post-LPS treatment.
(§2) Urine albumin was quantified by ELISA using a kit from Bethyl Laboratory Inc. Urine creatinine levels were measured in the same samples using the Creatinine Colorimetric Assay Kit (500701; Cayman Chemical) as per manufacturer's protocol.
Briefly, mice were perfused with PBS containing 2.5 mg/ml iron oxide and 1% BSA. At the end of perfusion, kidneys were removed, decapsulated, minced into 1 mm^3 pieces, and digested in PBS containing 1 mg/ml collagenase A. Digested tissue was subsequently passed through a 100 μm cell strainer and collected by centrifugation. The pellet was resuspended in 1 ml PBS and glomeruli were collected using a magnet. The purity of glomeruli was verified under microscopy. Total RNA was isolated from kidney glomeruli of mice using the RNeasy Kit (Qiagen, Germantown, MD).
Total RNA from cells was extracted by using TRIzol (Life Technologies). First-strand cDNA was prepared from total RNA (up to 1.25 μg) using the SuperScript™ IV VILO™ Master Mix (Life Technologies), and cDNA was amplified in triplicate using PowerUp™ SYBR™ Green Master Mix on an ABI QuantStudio3 (Applied Biosystems). Primers for human and mouse genes were designed using NCBI Primer-BLAST and validated for efficiency before application (Table 1). Data were normalized to housekeeping genes (GAPDH or ACTB) and presented as a fold increase compared with RNA isolated from the control group using the ΔΔCT method.
Transmission Electron Microscopy (TEM) was done in the Central Microscopy Imaging Center at Stony Brook Medicine. Briefly, after embedding the kidney tissues in epoxy resin, ultrathin sections were stained with uranyl acetate and lead citrate, then mounted on a copper grid, and photographed under a FEI BioTwin G2 Transmission Electron Microscope with AMT XR-60 CCD digital Camera (FEI).

Tg26 mice = experiment: HIV-1 transgenic (Tg26) model; assay type: in vivo, mouse
Description: as §2
Briefly formalin-fixed and paraffin embedded sections were deparaffinized, and endogenous peroxidase was inactivated with H2O2. All kidney sections from these mice were prepared in identical fashion. Immunofluorescence was performed using rabbit anti-KLF15, mouse anti-WT1 (Santa Cruz, SC-7385), rabbit anti-Synaptopodin (Sigma, SAB3500585), rabbit anti-p65 (Cell Signaling Tech, 8242S) antibodies. After washing, sections were incubated with the appropriate fluorophore-linked secondary antibody (Alexa Fluor 647 Donkey anti-mouse, Alexa Fluor 568 Donkey anti-rabbit antibodies, Life Technologies). After counter staining with Hoechst (Thermo Fisher Scientific), slides were mounted in Prolong Gold mounting media (Thermo Fisher Scientific) and photographed under a Nikon Eclipse Ni-E Fully Motorized Microscope System with a DS-Qi2 digital camera.
Quantification of KLF15 staining in the podocytes was determined by quantifying the intensity of KLF15 staining (optical density) in WT1+Hoechst staining using ImageJ 1.53c software (National Institute of Health, http://imagej.nih.gov/ij).
Mice were perfused with PBS, and the kidneys were fixed in 10% phosphate buffered formalin overnight and switched to 70% ethanol before processing for histology. Kidney tissue was embedded in paraffin by Stony Brook Medicine Research Histology Core Laboratory (RHCL)—Department of Pathology and 4-μm-thick sections were stained with periodic acid-Schiff (PAS), hematoxylin & eosin (H&E), and masson's trichrome (Sigma-Aldrich). Quantification of % FSGS was determined by renal pathology in a blinded fashion (Huntsman Cancer Institute-University of Utah Health).

[3] = molecular target: hERG Human Potassium Ion Channel (Homo sapiens, UniProt Q12809); experiment: hERG Human Potassium Ion Channel Cell Based QPatch CiPA Assay
Chain of hERG Human Potassium Ion Channel (Q12809 whole entry): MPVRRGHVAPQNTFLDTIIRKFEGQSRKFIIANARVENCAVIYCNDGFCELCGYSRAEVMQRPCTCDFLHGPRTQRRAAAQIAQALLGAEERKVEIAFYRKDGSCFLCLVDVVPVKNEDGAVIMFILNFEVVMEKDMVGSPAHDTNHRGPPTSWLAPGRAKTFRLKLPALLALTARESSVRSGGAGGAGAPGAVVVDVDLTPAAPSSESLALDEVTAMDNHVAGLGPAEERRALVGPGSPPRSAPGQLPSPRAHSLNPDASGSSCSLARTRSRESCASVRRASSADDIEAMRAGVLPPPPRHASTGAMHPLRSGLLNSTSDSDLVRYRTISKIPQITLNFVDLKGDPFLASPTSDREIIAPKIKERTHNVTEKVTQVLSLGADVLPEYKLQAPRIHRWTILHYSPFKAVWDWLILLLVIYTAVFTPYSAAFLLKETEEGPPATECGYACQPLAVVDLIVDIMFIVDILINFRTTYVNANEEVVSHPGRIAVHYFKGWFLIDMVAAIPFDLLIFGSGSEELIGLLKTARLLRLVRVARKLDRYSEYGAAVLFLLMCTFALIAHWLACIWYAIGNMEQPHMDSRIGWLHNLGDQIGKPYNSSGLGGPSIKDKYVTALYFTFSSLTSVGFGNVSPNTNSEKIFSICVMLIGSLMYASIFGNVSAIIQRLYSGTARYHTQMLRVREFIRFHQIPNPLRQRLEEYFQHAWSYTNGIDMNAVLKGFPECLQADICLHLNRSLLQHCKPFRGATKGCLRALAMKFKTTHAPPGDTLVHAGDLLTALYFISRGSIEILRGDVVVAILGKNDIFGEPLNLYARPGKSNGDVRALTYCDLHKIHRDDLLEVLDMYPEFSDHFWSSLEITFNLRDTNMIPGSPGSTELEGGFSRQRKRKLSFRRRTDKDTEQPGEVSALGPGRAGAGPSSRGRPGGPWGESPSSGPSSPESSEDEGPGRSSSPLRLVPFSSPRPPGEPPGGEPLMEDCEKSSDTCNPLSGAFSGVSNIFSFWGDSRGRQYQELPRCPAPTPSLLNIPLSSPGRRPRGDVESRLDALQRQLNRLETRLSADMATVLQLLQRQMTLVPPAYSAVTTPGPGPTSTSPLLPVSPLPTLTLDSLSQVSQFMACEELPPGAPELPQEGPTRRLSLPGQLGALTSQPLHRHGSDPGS
From the text: A 500 ms pulse to −40 mV is delivered to measure the leaking current, which is subtracted from the tail current on-line. The cell is subsequently depolarized to +40 mV for 500 ms and then to −80 mV over a 100 ms ramp to elicit the hERG tail current. The parameters measured were the maximum tail current evoked on stepping to 40 mV and ramping back to −80 mV from the test pulse. All data were filtered for seal quality, seal drop, and current amplitude.

IKKβ [4] = molecular target: T1, IKKβ (Homo sapiens, UniProt O14920)
T1 sequence (O14920 whole entry): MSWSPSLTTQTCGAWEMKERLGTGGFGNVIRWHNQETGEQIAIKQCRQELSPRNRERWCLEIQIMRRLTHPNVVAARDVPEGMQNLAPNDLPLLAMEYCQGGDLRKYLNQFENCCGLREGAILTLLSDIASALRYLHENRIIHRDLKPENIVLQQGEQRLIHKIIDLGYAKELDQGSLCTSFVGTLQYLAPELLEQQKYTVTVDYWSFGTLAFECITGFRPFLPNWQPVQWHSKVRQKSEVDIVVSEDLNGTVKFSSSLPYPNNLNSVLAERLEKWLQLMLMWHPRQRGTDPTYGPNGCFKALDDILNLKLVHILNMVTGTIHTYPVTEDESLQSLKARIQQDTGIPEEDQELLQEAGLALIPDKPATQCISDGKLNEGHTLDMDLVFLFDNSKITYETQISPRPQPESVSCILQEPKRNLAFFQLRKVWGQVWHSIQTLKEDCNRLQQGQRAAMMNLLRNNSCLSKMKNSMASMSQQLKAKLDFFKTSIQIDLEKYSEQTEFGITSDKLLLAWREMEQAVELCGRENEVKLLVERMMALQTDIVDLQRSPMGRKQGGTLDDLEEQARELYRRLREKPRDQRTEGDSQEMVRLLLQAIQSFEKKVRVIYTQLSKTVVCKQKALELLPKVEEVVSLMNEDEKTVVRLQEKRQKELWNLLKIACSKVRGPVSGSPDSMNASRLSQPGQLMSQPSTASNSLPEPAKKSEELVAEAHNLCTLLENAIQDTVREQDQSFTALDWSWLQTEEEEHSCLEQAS
Description: (§3) After the kinase reaction, an equal volume of ADP-Go™ Reagent is added to both terminate the kinase reaction and deplete the remaining ATP. Subsequently, the Detection Reagent is added to simultaneously convert ADP to ATP and measure the concentrations of newly synthesized ATP using a luciferase/luciferin reaction. The light generated is measured using a 96-well plate reader SpectraMax M3 (Molecular Devices). Luminescence can be correlated to ADP concentrations by using an ATP-to-ADP conversion curve.

IKBKB^M96V mutant = IKBKB^M96V mutant (Homo sapiens, UniProt O14920, M96V)
Chain of IKBKB^M96V mutant (O14920 whole entry M96V): as the sequence (O14920 whole entry) above, with M96V counted along it
Description: as §3

mice = settings: as compared to DMSO treatment
From the text: Serum was subsequently collected and mice were euthanized for collection of kidney, liver, and heart tissue.

IKKβ [5] = molecular target: T1, IKKβ; experiment: Thermal shift assay; settings: BT503 1 μM, human podocytes
Description: Each tube was treated at a range of temperatures (40° C. to 52° C.) for 3 minutes using Eppendorf Mastercycler gradient temperature setting. Protein was subsequently extracted from cells using freeze-thaw cycle, and IKKβ and β-actin were detected using western blot.

Compound: CSc1ccc(NC(=O)Nc2ccc(C)nc2)cc1 [BT503]
- KLF15-mutant reporter activity [1]: induced KLF15 activity
- KLF15 activity in the setting of LPS treatment [2]: maintained the elevated KLF15 activity
- toxicity to human podocytes (human podocytes; analogue screen): no observed toxicity
- renilla activity (cell viability) in the setting of LPS treatment (human podocytes; as compared to DMSO-treated podocytes): restored renilla activity
- Glomerular Klf15 and Wilms Tumor 1 (Wt1) expression (FVB/n mice; LPS conditions, vs DMSO-treated mice): restored
- albuminuria (FVB/n mice; LPS proteinuric murine model, concurrent treatment, vs DMSO): attenuated albuminuria
- foot process effacement (podocyte injury) (FVB/n mice; LPS treatment): significantly restored
- p65 expression (kidney lysates) (Tg26 mice): reduced
- albuminuria (Tg26 mice; daily for 14 days, vs DMSO): significantly mitigated the increase in albuminuria
- % of glomeruli with focal segmental and global GS lesions (Tg26 mice; vs DMSO): significantly reduced
- glomerular synaptopodin expression (Tg26 mice; vs DMSO): restored
- interstitial fibrosis (Tg26 mice; vs DMSO): reduced interstitial fibrosis
- kidney function (serum urea nitrogen and creatinine) (Tg26 mice; vs DMSO): improved kidney function
- podocyte number (WT1+ podocytes per glomerular cross-sectional area) (Tg26 mice; vs DMSO): preserved podocyte number
- % inhibition mean ([3]; 3 μM): 1.20%
- % inhibition n1 ([3]; 3 μM): −2.01%
- % inhibition n2 ([3]; 3 μM): 4.41%
- % inhibition mean ([3]; 10 μM): 6.25%
- % inhibition n1 ([3]; 10 μM): −0.08%
- % inhibition n2 ([3]; 10 μM): 12.57%
- hERG inhibition ([3]; 3-10 μM, as compared to positive control): low inhibition
- inhibition of kinase activity at higher ATP concentrations (IKKβ [4]; ATP 50 μM): mitigated
- IC50 (IKKβ [4]; read-out: IC50 (IKKβ kinase activity), IKBKB^WT): 163 nM
- IKKβ kinase inhibition in IKBKB^M96V mutant as compared to IKBKB^WT (IKBKB^M96V mutant): resistance to IKKβ kinase inhibition
- aspartate aminotransferase (AST), alanine transaminase (ALT) levels (mice): no significant difference
- histological changes in the kidney, heart, and liver tissue (mice): no significant difference
- IKKβ stability (thermal shift) (IKKβ [5]): IKKβ stability was reduced in DMSO as compared to BT503 treatment
